According to PubChem BioAssay (NCI):
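Grown in 96-well plates, cells were treated for 48 hours with each compound at five concentrations. Insufficient inhibition: endpoint recorded as highest concentration tested. Abbreviation: GI50, concentration required for 50% inhibition of growth. TGI: concentration producing complete growth inhibition.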

Columns and labels:
Assay in all cases: NCI-60 cell line screen, 48 h
SNB-19 CNS = system: SNB-19 CNS
OVCAR-8 ovarian = system: OVCAR-8 ovarian
HCT-116 colon = system: HCT-116 colon
T-47D breast = system: T-47D breast
MDA-MB-231 breast = system: MDA-MB-231 breast
RXF 393 renal = system: RXF 393 renal
TK-10 renal = system: TK-10 renal
SF-268 CNS = system: SF-268 CNS
SR leukemia = system: SR leukemia
CAKI-1 renal = system: CAKI-1 renal
EKVX NSCLC = system: EKVX NSCLC
NCI-H522 lung = system: NCI-H522 lung
NCI-H23 lung = system: NCI-H23 lung
BT-549 breast = system: BT-549 breast
UO-31 renal = system: UO-31 renal
M14 melanoma = system: M14 melanoma
OVCAR-3 ovarian = system: OVCAR-3 ovarian
MALME-3M melanoma = system: MALME-3M melanoma
KM12 colon = system: KM12 colon
SN12C renal = system: SN12C renal
SK-MEL-28 melanoma = system: SK-MEL-28 melanoma
IGROV1 ovarian = system: IGROV1 ovarian
ACHN renal = system: ACHN renal
HL-60(TB) leukemia = system: HL-60(TB) leukemia
K-562 leukemia = system: K-562 leukemia
HCT-15 colon = system: HCT-15 colon
SK-MEL-5 melanoma = system: SK-MEL-5 melanoma
SF-295 CNS = system: SF-295 CNS
MOLT-4 leukemia = system: MOLT-4 leukemia
NCI/ADR-RES ovarian = system: NCI/ADR-RES ovarian
DU-145 prostate = system: DU-145 prostate
COLO 205 colon = system: COLO 205 colon
MDA-MB-435 = system: MDA-MB-435
UACC-257 melanoma = system: UACC-257 melanoma
SK-OV-3 ovarian = system: SK-OV-3 ovarian
SW-620 colon = system: SW-620 colon
786-0 renal = system: 786-0 renal
OVCAR-4 ovarian = system: OVCAR-4 ovarian
HCC-2998 colon = system: HCC-2998 colon
NCI-H226 lung = system: NCI-H226 lung
U251 CNS = system: U251 CNS
HOP-62 NSCLC = system: HOP-62 NSCLC
SK-MEL-2 melanoma = system: SK-MEL-2 melanoma
NCI-H460 lung = system: NCI-H460 lung
HT29 colon = system: HT29 colon
A498 renal = system: A498 renal
OVCAR-5 ovarian = system: OVCAR-5 ovarian
UACC-62 melanoma = system: UACC-62 melanoma
LOX IMVI melanoma = system: LOX IMVI melanoma
A549 NSCLC = system: A549 NSCLC
MCF7 breast = system: MCF7 breast

COc1ccc(C2=C(c3cn(C)c4ccccc34)C(=O)OC2)cc1OC
GI50 (SNB-19 CNS): 4.18 µM | TGI (SNB-19 CNS): > 100 µM | GI50 (OVCAR-8 ovarian): 4.69 µM | TGI (OVCAR-8 ovarian): > 100 µM | GI50 (HCT-116 colon): 1.16 µM | TGI (HCT-116 colon): > 100 µM | GI50 (T-47D breast): 4.07 µM | TGI (T-47D breast): > 100 µM | GI50 (MDA-MB-231 breast): 2.42 µM | TGI (MDA-MB-231 breast): > 100 µM | GI50 (RXF 393 renal): 1.92 µM | TGI (RXF 393 renal): 6.11 µM | GI50 (TK-10 renal): > 100 µM | TGI (TK-10 renal): > 100 µM | GI50 (SF-268 CNS): 16.8 µM | TGI (SF-268 CNS): > 100 µM | GI50 (SR leukemia): 0.411 µM | TGI (SR leukemia): > 100 µM | GI50 (CAKI-1 renal): 0.747 µM | TGI (CAKI-1 renal): > 100 µM | GI50 (EKVX NSCLC): 4.64 µM | TGI (EKVX NSCLC): > 100 µM | GI50 (NCI-H522 lung): 1.19 µM | TGI (NCI-H522 lung): > 100 µM | GI50 (NCI-H23 lung): 4.04 µM | TGI (NCI-H23 lung): > 100 µM | GI50 (BT-549 breast): 2.79 µM | TGI (BT-549 breast): > 100 µM | GI50 (UO-31 renal): 1.93 µM | TGI (UO-31 renal): > 100 µM | GI50 (M14 melanoma): 0.938 µM | TGI (M14 melanoma): > 100 µM | GI50 (OVCAR-3 ovarian): 1.25 µM | TGI (OVCAR-3 ovarian): 5.45 µM | GI50 (MALME-3M melanoma): 9.32 µM | TGI (MALME-3M melanoma): > 100 µM | GI50 (KM12 colon): 1.45 µM | TGI (KM12 colon): > 100 µM | GI50 (SN12C renal): 6.81 µM | TGI (SN12C renal): > 100 µM | GI50 (SK-MEL-28 melanoma): 9.87 µM | TGI (SK-MEL-28 melanoma): > 100 µM | GI50 (IGROV1 ovarian): 1.72 µM | TGI (IGROV1 ovarian): > 100 µM | GI50 (ACHN renal): 7.95 µM | TGI (ACHN renal): > 100 µM | GI50 (HL-60(TB) leukemia): 1.42 µM | TGI (HL-60(TB) leukemia): 6.48 µM | GI50 (K-562 leukemia): 0.441 µM | TGI (K-562 leukemia): > 100 µM | GI50 (HCT-15 colon): 0.621 µM | TGI (HCT-15 colon): > 100 µM | GI50 (SK-MEL-5 melanoma): 3.74 µM | TGI (SK-MEL-5 melanoma): > 100 µM | GI50 (SF-295 CNS): 2.65 µM | TGI (SF-295 CNS): > 100 µM | GI50 (MOLT-4 leukemia): 2.8 µM | TGI (MOLT-4 leukemia): > 100 µM | GI50 (NCI/ADR-RES ovarian): 0.87 µM | TGI (NCI/ADR-RES ovarian): > 100 µM | GI50 (DU-145 prostate): 3.13 µM | TGI (DU-145 prostate): > 100 µM | GI50 (COLO 205 colon): 1.5 µM | TGI (COLO 205 colon): 27.9 µM | GI50 (MDA-MB-435): 0.265 µM | TGI (MDA-MB-435): 0.801 µM | GI50 (UACC-257 melanoma): > 100 µM | TGI (UACC-257 melanoma): > 100 µM | GI50 (SK-OV-3 ovarian): 5.6 µM | TGI (SK-OV-3 ovarian): > 100 µM | GI50 (SW-620 colon): 0.587 µM | TGI (SW-620 colon): > 100 µM | GI50 (786-0 renal): 6.67 µM | TGI (786-0 renal): > 100 µM | GI50 (OVCAR-4 ovarian): 6.77 µM | TGI (OVCAR-4 ovarian): > 100 µM | GI50 (HCC-2998 colon): 2.86 µM | TGI (HCC-2998 colon): > 100 µM | GI50 (NCI-H226 lung): 3.26 µM | TGI (NCI-H226 lung): > 100 µM | GI50 (U251 CNS): 2.64 µM | TGI (U251 CNS): > 100 µM | GI50 (HOP-62 NSCLC): 3 µM | TGI (HOP-62 NSCLC): > 100 µM | GI50 (SK-MEL-2 melanoma): 4.34 µM | TGI (SK-MEL-2 melanoma): > 100 µM | GI50 (NCI-H460 lung): 2.21 µM | TGI (NCI-H460 lung): > 100 µM | GI50 (HT29 colon): 0.688 µM | TGI (HT29 colon): > 100 µM | GI50 (A498 renal): 0.374 µM | TGI (A498 renal): 3.5 µM | GI50 (OVCAR-5 ovarian): 5.96 µM | TGI (OVCAR-5 ovarian): > 100 µM | GI50 (UACC-62 melanoma): 1.28 µM | TGI (UACC-62 melanoma): > 100 µM | GI50 (LOX IMVI melanoma): 4.54 µM | TGI (LOX IMVI melanoma): > 100 µM | GI50 (A549 NSCLC): 2.67 µM | TGI (A549 NSCLC): > 100 µM | GI50 (MCF7 breast): 0.713 µM | TGI (MCF7 breast): > 100 µM
